{
  "source": "paper PMC4466525",
  "about": "“Design, Synthesis and Structure-Activity Relationship Studies of Novel Survivin Inhibitors with Potent Anti-Proliferative Properties” (PLoS ONE, 2015)",
  "key": {"[1]": {"biological_target": "T1, survivin (Homo sapiens, UniProt O15392)", "T1 construct": "endogenous in cells; host or cells: A375 cells", "T1 sequence (O15392 whole entry)": "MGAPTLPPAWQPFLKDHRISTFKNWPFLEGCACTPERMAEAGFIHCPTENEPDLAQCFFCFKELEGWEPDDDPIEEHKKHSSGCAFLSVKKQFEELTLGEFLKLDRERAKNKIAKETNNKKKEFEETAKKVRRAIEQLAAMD", "experiment": "DARTS assay, survivin", "type": "binding", "conditions": "20 μM, pronase-digested A375 or M14 cell lysates", "method": "Drug affinity responsive target stability (DARTS) assay was performed to identify the protein targets of UC-112 analogs in A375 or M14 cell lysates following the protocols described in the literature. Briefly, A375 or M14 lysates were prepared in non-denaturing M-PER lysis buffer (Thermo Fisher Scientific, Waltham, MA) with protease and phosphatase inhibitors. Then TNC (Tris, NaCl, CaCl2) buffer was added into cell lysates before the total protein concentration of lysate being determined by BCA protein assay kit (Thermo Fisher Scientific, Waltham, MA). The lysates were split into two groups: one group was added with compound of interest solution, the other group was added with same amount of vehicle (DMSO). The samples were mixed thoroughly and incubated at room temperature for 1 h. Then 10 mg/mL pronase stock solution was added into both compound treated or vehicle control groups to achieve the final dilution of 1:100, 1:300, 1:1000 and 1:3000. One aliquot of each group was kept as un-digested control. The proteolysis was performed at room temperature for 30 min before ice cold protease inhibitor stock being added into the mixture. Then SDS loading buffer was added into all the samples and heated to 70°C for 10 min. Finally, the results were analyzed by SDS-PAGE and immunoblotting."}, "[2]": {"tested_on": "caspase 3/7", "experiment": "Caspase 3/7 functional assay (Caspase-Glo 3/7)", "type": "cell-based, human", "conditions": "1 μM, 24 h, A375 or PC-3 cells, N = 3", "method": "The caspase 3/7 activity of cancer cells treated by DMSO control or compound of interest was analyzed using Glo Caspase-Glo 3/7 kit from Promega Corporation (Madison, WI) as per manufacturer’s instructions in similar protocol as described before. The readings of relative luminescence unit were normalized by the cell viability read from the same well determined by compatible CytoTox-Fluor Cytotoxicity assay kit (Promega, WI)."}, "[3]": {"tested_on": "NCI-60 cell lines", "experiment": "NCI-60 cell line screening (SRB), whole panel", "type": "cell-based, human", "method": "Four compounds including the parental compound UC-112 were submitted to National Cancer Institute for its NCI-60 cell line screening, initially tested at one concentration (10 μM), and subsequently selected for full five concentration testing following the standard protocols disclosed by NCI [34]. In brief, cells were plated into 96 well micro-titer plates 24 h prior to the treatment of compound solution for 48 h, then the cell viability was read out through absorbance of sulforhodamine B (SRB) staining."}},
  "data": [
    {"smiles": "CC(C)c1ccc(COCc2cc(CN3CCCC3)c(O)c3ncccc23)cc1", "note": "[4g, 5-(((4-isopropylbenzyl)oxy)methyl)-7-(pyrrolidin-1-ylmethyl)quinolin-8-ol]", "values": [
      {"measurement": "Protease susceptibility of survivin (DARTS)", "setting": "[1]", "value": "significantly reduced"},
      {"measurement": "Caspase 3/7 activation relative to DMSO control group", "setting": "[2]", "value": "up to 4 folds"},
      {"measurement": "GI50", "setting": "[3]; Homo sapiens, five dose testing, 48 h, SRB, read-out: Average GI50 over all cancer cell lines in the NCI-60 panel", "value": 0.5, "unit": "µM"},
      {"measurement": "Activity in NCI-60 one-concentration screening", "setting": "[3]; one concentration, 10 μM", "value": "good activity"}
    ]}
  ]
}
